Counter-ions that a name gives are not always drawn.
test system: human primary T-cells, IL-2 stimulated proliferation (JAK-1 and JAK-3 dependent; reported as JAK3 activity); experiment: Human primary T-cell proliferation stimulated by IL-2 (Example 3); format: cell-based; conditions: Homo sapiens, T-cell, tested under conditions described in Example 3 (IL-2 stimulated human primary T-cell proliferation); read-out: ability to inhibit JAK3 activity, IC50 range (Table V)
Procedure, shortened: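 Peripheral-blood human T-cells pre-activated via TCR/CD28, IL-2-starved overnight, then cultured 72 h at 37 °C with compound in Yssel's medium containing IL-2 (80 U/mL in cell suspension). Proliferation read as viable-cell ATP by CellTiter-Glo luminescence; reduction versus control taken as JAK pathway inhibition.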

| Compound | IC50 [nM] |
| --- | --- |
| Cc1cnc(Nc2ccc3c(c2)CCNC3=O)nc1Nc1ccc2oc(=O)[nH]c2c1 [IV-15, 6-[5-Methyl-4-(2-oxo-2,3-dihydro-benzooxazol-5-ylamino)-pyrimidin-2-ylamino]-3,4-dihydro-2H-isoquinolin-1-one] | < 500 |
| COc1c(F)ccc(Nc2ncc(C)c(Nc3cc(C)c4oc(=O)[nH]c4c3)n2)c1F [Compound I-507, 5-(2-(2,4-difluoro-3-methoxyphenylamino)-5-methylpyrimidin-4-ylamino)-7-methylbenzo[d]oxazol-2(3H)-one] | < 500 |
| Cc1cnc(Nc2ccc(N3CCC(NC(=O)C(F)(F)F)C3)nc2)nc1Nc1ccc2oc(=O)[nH]c2c1 (stereo not shown) [II-83, 2,2,2-trifluoro-N-(1-(5-(5-methyl-4-(2-oxo-2,3-dihydrobenzo[d]oxazol-5-ylamino)pyrimidin-2-ylamino)pyridin-2-yl)pyrrolidin-3-yl)acetamide] | < 500 |
| Cc1cnc(Nc2ccc(N3CCN(C)CC3)nc2)nc1Nc1cc(F)c2oc(=O)[nH]c2c1 [II-75, 7-fluoro-5-(5-methyl-2-(6-(4-methylpiperazin-1-yl)pyridin-3-ylamino)pyrimidin-4-ylamino)benzo[d]oxazol-2(3H)-one] | < 500 |
| Cc1cnc(Nc2ccc(N(C)[C@H]3CCCN(Cc4ccccc4)C3)nc2)nc1Nc1ccc2oc(=O)[nH]c2c1 [II-95, (S)-5-(2-(6-((1-benzylpiperidin-3-yl)(methyl)amino)pyridin-3-ylamino)-5-methylpyrimidin-4-ylamino)benzo[d]oxazol-2(3H)-one] | < 500 |
| Cc1cnc(Nc2ccc(OCCN(C)C)cc2)nc1Nc1ccc2oc(=O)[nH]c2c1 [Compound I-426, 5-{2-[4-(2-Dimethylamino-ethoxy)-phenylamino]-5-methyl-pyrimidin-4-ylamino}-3H-benzooxazol-2-one] | < 500 |
| COc1cc(Nc2ncc(C)c(Nc3ccc4oc(=O)[nH]c4c3)n2)ccc1F [Compound I-183, 5-[2-(4-Fluoro-3-methoxy-phenylamino)-5-methyl-pyrimidin-4-ylamino]-3H-benzooxazol-2-one] | < 500 |
| Cc1cnc(Nc2ccc(C3NCC4CCCCC43)nc2)nc1Nc1ccc2oc(=O)[nH]c2c1 (stereo not shown) [II-121, 5-methyl-N2-[2-(octahydroisoindol-1-yl)pyridin-5-yl]-N4-(2-oxo-2,3-dihydro-1,3-benzoxazol-5-yl)-2,4-pyrimidinediamine] | < 500 |
| Cc1cnc(Nc2cc(C)c(C)c(C)c2)nc1Nc1cc(F)c2oc(=O)[nH]c2c1 [Compound I-489, 7-fluoro-5-(5-methyl-2-(3,4,5-trimethylphenylamino)pyrimidin-4-ylamino)benzo[d]oxazol-2(3H)-one] | < 500 |
| COc1cc(C)cc(Nc2ncc(C)c(Nc3cc(F)c4oc(=O)[nH]c4c3)n2)c1 [Compound I-430, 7-fluoro-5-(2-(3-methoxy-5-methylphenylamino)-5-methylpyrimidin-4-ylamino)benzo[d]oxazol-2(3H)-one] | < 500 |
| Cc1cnc(Nc2ccc(C(=O)O)cc2)nc1Nc1ccc2oc(=O)[nH]c2c1 [Compound I-126, 4-[5-Methyl-4-(2-oxo-2,3-dihydro-benzooxazol-5-ylamino)-pyrimidin-2-ylamino]-benzoic acid] | < 500 |
| Cc1cnc(Nc2ccc3[nH]nc(C)c3c2)nc1Nc1ccc2oc(=O)[nH]c2c1 [IV-49, 5-methyl-N2-(3-methylindazol-5-yl)-N4-(2-oxo-2,3-dihydro-1,3-benzoxazol-5-yl)-2,4-pyrimidinediamine] | < 500 |
| Cc1cnc(Nc2ccc3c(c2)CCCC(=O)N3)nc1Nc1ccc2oc(=O)[nH]c2c1 [IV-31, 5-(5-methyl-2-(2-oxo-2,3,4,5-tetrahydro-1H-benzo[b]azepin-7-ylamino)pyrimidin-4-ylamino)benzo[d]oxazol-2(3H)-one] | < 500 |
| COc1cc(Nc2ncc(C)c(Nc3ccc4oc(=O)[nH]c4c3)n2)ccc1C(=O)Nc1ccccc1 [Compound I-221, 2-methoxy-4-(5-methyl-4-(2-oxo-2,3-dihydrobenzo[d]oxazol-5-ylamino)pyrimidin-2-ylamino)-N-phenylbenzamide] | < 500 |
| Cc1cnc(Nc2ccc(NS(C)(=O)=O)nc2)nc1Nc1ccc2oc(=O)n(C)c2c1 [II-79, N-(5-(5-methyl-4-(3-methyl-2-oxo-2,3-dihydrobenzo[d]oxazol-5-ylamino)pyrimidin-2-ylamino)pyridin-2-yl)methanesulfonamide] | < 500 |
| Cc1cnc(Nc2ccc(N[C@H]3CCCN(Cc4ccccc4)C3)nc2)nc1Nc1ccc2oc(=O)[nH]c2c1 [II-99, (S)-5-(2-(6-(1-benzylpiperidin-3-ylamino)pyridin-3-ylamino)-5-methylpyrimidin-4-ylamino)benzo[d]oxazol-2(3H)-one] | < 500 |
| Cc1cnc(Nc2ccc(N(C)[C@H]3CCCNC3)nc2)nc1Nc1ccc2oc(=O)[nH]c2c1 [II-103, (S)-5-(5-methyl-2-(6-(methyl(piperidin-3-yl)amino)pyridin-3-ylamino)pyrimidin-4-ylamino)benzo[d]oxazol-2(3H)-one] | < 500 |
| COc1cc(Nc2ncc(C)c(Nc3ccc4oc(=O)[nH]c4c3)n2)ccc1C(=O)N1CCCC1 [Compound I-268, 5-(2-(3-methoxy-4-(pyrrolidine-1-carbonyl)phenylamino)-5-methylpyrimidin-4-ylamino)benzo[d]oxazol-2(3H)-one] | < 500 |
| O=c1[nH]c2cc(Nc3nc(Nc4ccc(OC(F)(F)F)cc4)ncc3F)ccc2o1 [Compound I-109, N4-(benzoxazolin-2-on-5-yl)-N2-(4-trifluoromethoxyphenyl)-5-fluoropyrimidine-2,4-diamine trifluoroacetate salt] | < 500 |
| Cc1cnc(Nc2ccc(N3CCN(C)CC3)nc2)nc1Nc1ccc2c(c1)oc(=O)n2C [II-23, N2-(6-(4-methylpiperazin-1-yl)pyridin-3-yl)-N4-(3-methyl-2-oxo-2,3-dihydrobenzo[d]oxazol-6-yl)-5-methylpyrimidine-2,4-diamine trifluoroacetate salt] | < 500 |
| CS(=O)(=O)Nc1ccc(Nc2ncc(F)c(Nc3ccc4[nH]c(=O)[nH]c4c3)n2)cc1 [Compound I-51, N2-(4-(methylsulfonylamino)phenyl)-N4-(1H-benzo[d]imidazol-2(3H)-on-5-yl)-5-fluoropyrimidine-2,4-diamine] | 500 to 5000 |
| O=c1[nH]c2cc(Nc3nc(Nc4ccc(N5C[C@@H]6C[C@H]5CO6)nc4)ncc3F)ccc2o1 [II-34, N4-(benzoxazolin-2-on-5-yl)-N2-[2-((1S,4S)-2-oxa-5-azabicyclo[2.2.1]heptan-5-yl)pyridin-5-yl]-5-fluoropyrimidine-2,4-diamine] | < 500 |

same assay, conditions: tested under conditions described in Example 3 (IL-2 stimulated human primary T-cell proliferation); read-out: ability to inhibit JAK3 activity, IC50 range (Table V)

| Compound | IC50 [nM] |
| --- | --- |
| Cn1c(=O)oc2ccc(Nc3nc(Nc4cccc(S(C)(=O)=O)c4)ncc3F)cc21 [Compound I-77, N2-((3-methylsulfonyl)phenyl)-N4-(3-methyl-2-oxo-2,3-dihydrobenzo[d]oxazol-5-yl)-5-fluoropyrimidine-2,4-diamine] | 500 to 5000 |
| COCCCOc1ccc(Nc2ncc(C)c(Nc3ccc4oc(=O)[nH]c4c3)n2)cn1 [II-149, N2-[2-(3-methoxy)propoxypyridin-5-yl]-5-methyl-N4-(2-oxo-2,3-dihydro-1,3-benzoxazol-5-yl)-2,4-pyrimidinediamine] | < 500 |
| Cc1cnc(Nc2ccc(S(C)(=O)=O)cc2)nc1Nc1ccc2oc(=O)[nH]c2c1 [Compound I-17] | < 500 |
| Cc1cnc(Nc2cccc(S(C)(=O)=O)c2)nc1Nc1ccc2[nH]c(=O)oc2c1 [Compound I-100, N2-((3-methylsulfonyl)phenyl)-N4-(2-oxo-2,3-dihydrobenzo[d]oxazol-6-yl)-5-methylpyrimidine-2,4-diamine] | < 500 |
| Cc1cnc(Nc2cc(C)c(F)c(C)c2)nc1Nc1ccc2oc(=O)[nH]c2c1 [Compound I-374, N2-(3,5-dimethyl-4-fluoro)phenyl-5-methyl-N4-(2-oxo-2,3-dihydro-1,3-benzoxazol-5-yl)-2,4-pyrimidinediamine] | < 500 |
| Cn1c(=O)n(C)c2cc(Nc3nc(Nc4cccc(S(C)(=O)=O)c4)ncc3F)ccc21 [Compound I-41, N4-(1,3-dimethylbenzimidazolin-2-on-5-yl)-N2-((3-methylsulfonyl)phenyl)-5-fluoropyrimidine-2,4-diamine] | 500 to 5000 |
| Cc1cnc(Nc2ccc(OC(F)F)cc2)nc1Nc1ccc2oc(=O)[nH]c2c1 [Compound I-311, N2-(4-difluoromethoxy)phenyl-5-methyl-N4-(2-oxo-2,3-dihydro-1,3-benzoxazol-5-yl)-2,4-pyrimidinediamine] | < 500 |
| COc1ccc(Nc2ncc(C)c(Nc3ccc4oc(=O)[nH]c4c3)n2)cc1OCc1ccncc1 [Compound I-298, N2-{4-methoxy-3-[(pyridin-4-yl)methoxy]}phenyl-5-methyl-N4-(2-oxo-2,3-dihydro-1,3-benzoxazol-5-yl)-2,4-pyrimidinediamine] | < 500 |
| CCc1cc(Nc2ncc(C)c(Nc3ccc4oc(=O)[nH]c4c3)n2)cc(C#N)c1Cl [Compound I-383, N2-(4-chloro-3-cyano-5-ethyl)phenyl-5-methyl-N4-(2-oxo-2,3-dihydro-1,3-benzoxazol-5-yl)-2,4-pyrimidinediamine] | 500 to 5000 |
| COCCOc1ccc(Nc2ncc(C)c(Nc3ccc4oc(=O)[nH]c4c3)n2)cn1 [II-145, N2-[2-(2-methoxy)ethoxypyridin-5-yl]-5-methyl-N4-(2-oxo-2,3-dihydro-1,3-benzoxazol-5-yl)-2,4-pyrimidinediamine] | < 500 |
| Cc1cnc(Nc2ccc(NS(C)(=O)=O)cc2)nc1Nc1ccc2oc(=O)[nH]c2c1 [Compound I-52] | < 500 |
| CC(=O)N1CCN(c2cccc(Nc3ncc(C)c(Nc4ccc5oc(=O)[nH]c5c4)n3)c2)CC1 [Compound I-345, N2-[3-(4-acetyl)piperazino]phenyl-5-methyl-N4-(2-oxo-2,3-dihydro-1,3-benzoxazol-5-yl)-2,4-pyrimidinediamine] | < 500 |
